The text below walks through data of patent US20120165331A1, “Di/tri-aza-spiro-C9-C11alkanes” (priority 2010, published 2012).

Where only a bound is given, the exact number is not on record here.

Assay [1] concerns the target T1, human orexin 2 receptor (Homo sapiens, UniProt O43614).
T1 construct: expressed in transfected cells
T1 sequence (O43614 1-444): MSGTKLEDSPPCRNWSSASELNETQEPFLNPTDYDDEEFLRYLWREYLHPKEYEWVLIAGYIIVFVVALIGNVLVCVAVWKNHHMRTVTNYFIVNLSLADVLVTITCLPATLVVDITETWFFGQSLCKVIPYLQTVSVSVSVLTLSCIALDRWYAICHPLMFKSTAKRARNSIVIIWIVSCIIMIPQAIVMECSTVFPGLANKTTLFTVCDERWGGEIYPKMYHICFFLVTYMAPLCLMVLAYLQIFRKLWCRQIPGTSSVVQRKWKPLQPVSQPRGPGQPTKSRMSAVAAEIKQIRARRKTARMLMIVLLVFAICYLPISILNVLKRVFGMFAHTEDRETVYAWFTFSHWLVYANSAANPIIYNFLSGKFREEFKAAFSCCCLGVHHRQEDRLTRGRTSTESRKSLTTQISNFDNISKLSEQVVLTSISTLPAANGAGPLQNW
In words: Calcium accumulation in cells (FLIPR), antagonism of orexin A, human orexin 2 receptor. It is filed as cell-based. As to conditions: for Ki: calcium accumulation, antagonism of orexin A, Cheng-Prusoff corrected, read-out: FLIPR hOx2R Ki; for inhibition at 10 µM: measured at a concentration of 10 μM of compound, read-out: FLIPR hOx2R % inhibition. On the procedure: (§1) Calcium Accumulation in Cells (FLIPR):
(§2) Cells expressing human orexin 1 or human orexin 2 receptors, were seeded at 8,000 cells/well in 384 well black-walled clear bottom, poly-D-lysine coated plates. After 24 h, the medium was removed and cells were washed once with phosphate buffered saline and serum-deprived overnight in assay buffer (130 mM NaCl, 5.4 mM KCl, 1.8 mM CaCl2, 0.8 mM MgSO4, 0.9 mM NaH2PO4, 25 mM glucose, 20 mM HEPES, pH 7.4) containing bovine serum albumin (1% w/v).
(§3) On the day of the experiment, the cells seeded in black plates were treated with assay buffer containing the Ca^2+ sensitive fluorescent dye Fluo-4-AM (2 μM), and probenecid (0.1 mM). After 1 h plates were washed twice with, and resuspended in, assay buffer containing probenecid (0.1 mM) using a multi plate washer. The plates were placed into a FLIPR II (Fluorometric Imaging Plate Reader, Molecular Devices, Sunnyvale, Calif., USA) and baseline fluorescence (fluorescence light units, FLU) was measured (5 measurements, 2 S each; laser excitation 488 nm at 0.6-1 W, CCD camera exposure 0.4 s) before addition of buffer alone (basal) or containing test compounds (either compound of formula I alone, agonist alone or agonist in the presence of various concentrations of compounds of formula I). Fluorescence measurements were then continued every 1 S for 120 S followed by every 4 S for 240 S.
(§4) The measurements were typically made in two sequences:
(§5) Compounds of formula I were tested usually in a concentration range from 10^−9 M to 10^−5 M.
(§6) In the second round, performed one hour later (to allow for equilibration), Orexin A was tested either in the absence (calibration curves, Orexin A agonist controls) or in the presence of compounds of formula Ito determine antagonism.
(§7) Inhibition data is expressed in Table 1 as Kd [μM], converted by the Cheng and Prusoff correction (Kd=IC50/1+(L/EC50)), where IC50 is the 50% inhibition value determined in concentration response inhibition curves, EC50 is the half maximal activation concentration determined for orexin A in concentration response curves and L is the concentration of orexin A used in inhibition experiments performed in with a submaximal concentration of orexin A in the presence of up to 8 increasing concentrations of compound of formula I. Inhibition data is also expressed in Table 1 as % inhibition value measured at a concentration of 10 μM of selected compounds of formula I.

Assay [2] has as its target T2, human orexin 1 receptor (Homo sapiens, UniProt O43613).
T2 construct: expressed in transfected cells
T2 sequence (O43613 1-425): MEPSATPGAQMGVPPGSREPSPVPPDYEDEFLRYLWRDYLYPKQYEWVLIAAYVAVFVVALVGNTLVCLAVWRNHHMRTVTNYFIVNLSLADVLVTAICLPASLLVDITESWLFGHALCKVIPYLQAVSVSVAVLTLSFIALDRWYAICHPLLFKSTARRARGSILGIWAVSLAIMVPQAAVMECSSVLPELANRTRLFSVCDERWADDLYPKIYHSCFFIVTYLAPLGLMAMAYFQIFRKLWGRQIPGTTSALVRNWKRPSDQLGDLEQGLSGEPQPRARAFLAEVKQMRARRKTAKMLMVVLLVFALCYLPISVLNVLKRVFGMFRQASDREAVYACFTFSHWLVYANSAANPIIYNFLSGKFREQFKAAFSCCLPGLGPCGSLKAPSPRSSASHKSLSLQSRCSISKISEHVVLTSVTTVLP
In words: Calcium accumulation in cells (FLIPR), antagonism of orexin A, human orexin 1 receptor. It is filed as cell-based. As to conditions: for Ki: calcium accumulation, antagonism of orexin A, Cheng-Prusoff corrected, read-out: FLIPR hOx1R Ki; for inhibition at 10 µM: measured at a concentration of 10 μM of compound, read-out: FLIPR hOx1R % inhibition. On the procedure:
as §1, §2, §3, §4, §5, §6, §7

As for `Cc1cc(C)nc(N2CCC3(CCN(Cc4c[nH]c5ccccc45)C3=O)C2)n1` (stereo not drawn) [Example 5.7, 2-((1H-Indol-3-yl)methyl)-7-(4,6-dimethylpyrimidin-2-yl)-2,7-diazaspiro[4.4]nonan-1-one], the inhibition constant Ki was 249 nM in assay [1] and 2130 nM in assay [2].

In the case of `Cc1ccnc(N2CCC3(CC2)COCC(=O)N3Cc2cccc3[nH]ccc23)n1` [Example 8.19, 1-((1H-Indol-4-yl)methyl)-9-(4-methylpyrimidin-2-yl)-4-oxa-1,9-diazaspiro[5.5]undecan-2-one], the inhibitory constant (Ki) in assay [1] turned out to be 697 nM. Moreover, the inhibition at 10 µM in assay [2] amounted to 28%.

For the compound `Cc1cc(C)nc(N2CCC3(CCN(Cc4cccc5[nH]ccc45)C3=O)C2)n1` (stereo not drawn) [Example 5.9, 2-((1H-Indol-4-yl)methyl)-7-(4,6-dimethylpyrimidin-2-yl)-2,7-diazaspiro[4.4]nonan-1-one], in assay [1], the inhibition constant (Ki) is 1290 nM. Further, the inhibition at 10 µM in assay [2] is less than 10%.

In the case of `Cc1cccc(-c2cn(C)nc2CN2CCNC3(CCN(c4nc(C)cc(C)n4)CC3)C2=O)c1` [Example 1.38, 9-(4,6-Dimethyl-pyrimidin-2-yl)-4-((1-methyl-4-(m-tolyl)-1H-pyrazol-3-yl)methyl)-1,4,9-triazaspiro[5.5] undecan-5-one], the inhibition constant Ki in assay [1] came to 204 nM. In addition, the inhibition at 10 µM in assay [2] was 29%.

On to `Cn1ccc2ccnc(N3CCC4(CCN(Cc5c[nH]c6ccccc56)C4=O)C3)c21` (stereo not drawn) [Example 5.32, 2-((1H-indol-3-yl)methyl)-7-(1-methyl-1H-pyrrolo[2,3-c]pyridin-7-yl)-2,7-diazaspiro[4.4]nonan-1-one], for which the inhibition constant Ki in assay [1] was determined as 2290 nM; in assay [2], 4470 nM.

As for `Cc1cc(C)nc(N2CCC3(CC2)NCN(Cc2c[nH]c4ccccc24)C3=O)n1` [Example 4.1, 3-((1H-indol-3-yl)methyl)-8-(4,6-dimethylpyrimidin-2-yl)-1,3,8-triazaspiro[4.5]decan-4-one], the Ki in assay [1] was 2120 nM. The inhibition at 10 µM in assay [2] came to 12%.

For the compound `Cn1c(N2CCC3(CCN(Cc4ccccc4-c4ccccc4)C3=O)CC2)nc2ccccc21` [Example 3.8, 2-(Biphenyl-2-ylmethyl)-8-(1-methyl-1H-benzo[d]imidazol-2-yl)-2,8-diazaspiro[4.5]decan-1-one], the Ki is 644 nM in assay [1] and 506 nM in assay [2].

On to `COc1ccnc(N2CCC3(CCN(Cc4c[nH]c5ccccc45)C3=O)CC2)n1` [Example 3.14, 2-(1H-Indol-3-ylmethyl)-8-(4-methoxy-pyrimidin-2-yl)-2,8-diaza-spiro[4.5]decan-1-one], for which the inhibitory constant (Ki) is 134 nM in assay [1] and 2770 nM in assay [2].

For the compound `Cc1cc(C)nc(N2CCC3(CC2)NCCN(Cc2nn(C)cc2-c2cccc(C#N)c2)C3=O)n1` [Example 1.44, 3-(3-((9-(4,6-Dimethylpyrimidin-2-yl)-5-oxo-1,4,9-triazaspiro[5.5]undecan-4-yl)methyl)-1-methyl-1H-pyrazol-4-yl)benzonitrile], the Ki in assay [1] came out at 1490 nM. Moreover, the inhibition at 10 µM in assay [2] came to 12%.

For the compound `Cc1cc(C)nc(N2CCC3(CC2)OCCN(Cc2conc2-c2ccccc2)C3=O)n1` [Example 2.26, 9-(4,6-dimethylpyrimidin-2-yl)-4-((3-phenylisoxazol-4-yl)methyl)-1-oxa-4,9-diazaspiro[5.5]undecan-5-one], the Ki in assay [1] is 148 nM; in assay [2], 1180 nM.

Turning to `Cc1cc(C)nc(N2CCC3(CC2)NCCN(Cc2n[nH]c4ccccc24)C3=O)n1` [Example 1.50, 4-((1H-Indazol-3-yl)methyl)-9-(4,6-dimethylpyrimidin-2-yl)-1,4,9-triazaspiro[5.5] undecan-5-one], the values for the Ki in assay [1] and in assay [2] were 86 nM and 1180 nM, respectively.

As for `COc1ccnc(N2CCC3(CCCN(Cc4ccccc4-c4nc(C)no4)C3=O)C2)n1` (stereo not drawn) [Example 7.5, 2-(4-Methoxypyrimidin-2-yl)-7-(2-(3-methyl-1,2,4-oxadiazol-5-yl)benzyl)-2,7-diazaspiro[4.5]decan-6-one], the Ki in assay [1] was found to be 221 nM; in assay [2], 981 nM.

In the case of `COc1cccc(N2CCC3(CCN(Cc4c[nH]c5ccccc45)C3=O)CC2)n1` [Example 3.4, 2-((1H-Indol-3-yl)methyl)-8-(6-methoxypyridin-2-yl)-2,8-diazaspiro[4.5]decan-1-one], the Ki came to 287 nM in assay [1] and 3770 nM in assay [2].

For the compound `Cc1cc(C)nc(N2CCC3(CC2)NCCN(Cc2nn(C)cc2-c2ccc4c(c2)OCCO4)C3=O)n1` [Example 1.61, 4-((4-(2,3-Dihydro-benzo[b][1,4]dioxin-6-yl)-1-methyl-1H-pyrazol-3-yl)methyl)-9-(4,6-dimethylpyrimidin-2-yl)-1,4,9-triazaspiro[5.5] undecan-5-one], the values for the Ki in assay [1] and in assay [2] were 1.8 nM and 836 nM, respectively.

Consider `Cc1cc(C)nc(N2CCC3(CC2)NCCN(Cc2nn(C)cc2-c2ccccc2)C3=O)n1` [Example 1.3, 9-(4,6-Dimethyl-pyrimidin-2-yl)-4-(1-methyl-4-phenyl-1H-pyrazol-3-ylmethyl)-1,4,9-triaza-spiro[5.5]undecan-5-on], for which the Ki in assay [1] turned out to be 334 nM. Also, in assay [2], the inhibition at 10 µM is 35%.

For `N#Cc1ccnc(N2CCC3(CC2)COCC(=O)N3Cc2cccc3[nH]ccc23)c1` [Example 8.16, 2-(1-((1H-Indol-4-yl)methyl)-2-oxo-4-oxa-1,9-diazaspiro[5.5]undecan-9-yl)isonicotinonitrile], the Ki in assay [1] turned out to be 1020 nM. In assay [2], the inhibition at 10 µM was less than 10%.

For `COc1cccc(-c2cn(C)nc2CN2CCNC3(CCN(c4nc(C)cc(C)n4)CC3)C2=O)n1` [Example 1.54, 9-(4,6-Dimethyl-pyrimidin-2-yl)-4-((4-(6-methoxypyridin-2-yl)-1-methyl-1H-pyrazol-3-yl)methyl)-1,4,9-triazaspiro[5.5] undecan-5-one], the inhibition at 10 µM in assay [1] amounted to 32%; in assay [2], 15%.

As for `COc1ccnc(N2CCC3(CCN(Cc4c[nH]c5ncccc45)C3=O)C2)n1` (stereo not drawn) [Example 5.11, 2-((1H-Pyrrolo[2,3-b]pyridin-3-yl)methyl)-7-(4-methoxypyrimidin-2-yl)-2,7-diazaspiro[4.4]nonan-1-one], the inhibition at 10 µM in assay [1] was 26%; in assay [2], less than 10%.

Take `COc1cc(N2CCC3(CCN(Cc4c[nH]c5ccccc45)C3=O)C2)nc2ccnn12` (stereo not drawn) [Example 5.33, 2-((1H-indol-3-yl)methyl)-7-(7-methoxypyrazolo[1,5-a]pyrimidin-5-yl)-2,7-diazaspiro[4.4]nonan-1-one]: the inhibition at 10 µM in assay [1] and in assay [2] was less than 10% in each case.

For the compound `COc1ccnc(N2CCC3(CCN(Cc4n[nH]c5ccccc45)C3=O)C2)n1` (stereo not drawn) [Example 5.12, 2-((1H-Indazol-3-yl)methyl)-7-(4-methoxypyrimidin-2-yl)-2,7-diazaspiro[4.4]nonan-1-one], the inhibitory constant (Ki) in assay [1] is 711 nM. Further, the inhibition at 10 µM in assay [2] amounted to 40%.

With `N#Cc1cccc(N2CCC3(CC2)COCC(=O)N3Cc2cccc3[nH]ccc23)n1` [Example 8.17, 6-(1-((1H-Indol-4-yl)methyl)-2-oxo-4-oxa-1,9-diazaspiro[5.5]undecan-9-yl)picolinonitrile], in assay [1], the Ki was determined as 584 nM. Further, in assay [2], the inhibition at 10 µM was 40%.
